# Results taken from PubChem BioAssay (NCI).
#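 Each compound was tested at five concentrations against cells in 96-well plates for 48 hours. Abbreviation: GI50, concentration required for 50% inhibition of growth. TGI: total growth inhibition.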
# Experiments:
# Assay in all cases: NCI-60 cell line screen, 48 h
# 786-0 renal = tested on: 786-0 renal
# SW-620 colon = tested on: SW-620 colon
# NCI-H23 lung = tested on: NCI-H23 lung
# HT29 colon = tested on: HT29 colon
# NCI/ADR-RES ovarian = tested on: NCI/ADR-RES ovarian
# MALME-3M melanoma = tested on: MALME-3M melanoma
# SK-MEL-28 melanoma = tested on: SK-MEL-28 melanoma
# HOP-62 NSCLC = tested on: HOP-62 NSCLC
# MDA-MB-435 = tested on: MDA-MB-435
# UACC-62 melanoma = tested on: UACC-62 melanoma
# OVCAR-5 ovarian = tested on: OVCAR-5 ovarian
# MOLT-4 leukemia = tested on: MOLT-4 leukemia
# A498 renal = tested on: A498 renal
# A549 NSCLC = tested on: A549 NSCLC
# SK-OV-3 ovarian = tested on: SK-OV-3 ovarian
# CAKI-1 renal = tested on: CAKI-1 renal
SMILES,TGI (786-0 renal) [µM],TGI (SW-620 colon) [µM],TGI (NCI-H23 lung) [µM],TGI (HT29 colon) [µM],TGI (NCI/ADR-RES ovarian) [µM],TGI (MALME-3M melanoma) [µM],TGI (SK-MEL-28 melanoma) [µM],TGI (HOP-62 NSCLC) [µM],TGI (MDA-MB-435) [µM],TGI (UACC-62 melanoma) [µM],TGI (OVCAR-5 ovarian) [µM],TGI (MOLT-4 leukemia) [µM],TGI (A498 renal) [µM],TGI (A549 NSCLC) [µM],TGI (SK-OV-3 ovarian) [µM],TGI (CAKI-1 renal) [µM],GI50 (NCI/ADR-RES ovarian) [µM]
CC1(C)OC2C(O)CN3CCS[C@H]3C2O1 (stereo not given in full),> 100,> 100,> 100,> 100,> 100,> 100,> 100,> 100,> 100,> 100,> 100,> 100,> 100,> 100,> 100,> 100,–
O=C1C[C@H]2[C@@H](O1)[C@@H](O)CN1C(=O)c3ccccc3[C@H]21,> 100,> 100,> 100,> 100,> 100,> 100,> 100,> 100,> 100,> 100,> 100,> 100,> 100,> 100,> 100,> 100,–
CC(C)C1=C(Cc2ccccc2)C(=O)O/C1=C\c1cc(Cl)c(O)c(Cl)c1,32.1,44.6,32.9,32.2,52.3,36.6,35.9,42.4,35.4,36,43.7,60.7,53.1,50.5,39.7,29.9,–
CC(CCC#N)(CCC#N)C(=O)CC(O)(C(F)(F)F)C(F)(F)F,4.72,6.9,19.6,28.7,22.7,12,27.2,38.7,72.7,19.8,32.4,2.8,40,30.1,> 100,8.32,–
CC(C)(C)c1cc(C(=O)/C=C/C=C/c2ccccc2)cc(C(C)(C)C)c1O,36.1,41.4,> 100,> 89.9,30.5,> 100,> 100,> 100,> 70.4,> 71.4,> 87,> 63.1,> 80.7,47.3,> 100,> 100,–
CCOC(=O)NC1CN2CCC1CC2 (stereo not given),> 100,> 100,> 100,> 100,> 100,> 100,> 100,> 100,> 100,> 100,> 100,> 100,> 100,> 100,> 100,> 100,–
O=C(c1cc(Cl)cc(Cl)c1)N1CCN(C(=O)c2cc(Cl)cc(Cl)c2)C1=S,7.58,> 50.5,34.6,51.9,> 100,25.5,> 54.5,33.8,29.9,23.5,42.2,19.6,31.6,44.6,29.8,25.2,31.7
COc1ccc(OC)c(C2Cc3cnc4nc(N)nc(N)c4c3C2)c1 (stereo not given),89.9,> 100,> 100,> 100,> 100,47.3,> 100,> 100,65,51.5,97.1,87.5,33,> 100,> 100,> 100,–
CSc1nncc2[nH]c(C)nc12,> 100,> 100,> 100,> 100,> 100,> 100,> 100,> 100,> 100,> 100,> 100,> 100,> 100,> 100,> 100,> 100,–
O=[N+]([O-])c1cc2c(c3nonc13)OCCCCO2,10.7,20.7,25.2,21.1,62.6,11.9,22.5,16.2,17.9,21.5,26.2,9.79,47.6,33.5,65,34.3,–
COc1ccc(CN(Cc2ccc(OC)cc2)C(=O)CC2(O)C=CCC2)cc1 (stereo not given),> 100,> 100,> 100,> 100,> 100,> 100,> 100,> 100,> 100,> 100,> 100,> 100,> 100,> 100,> 100,> 100,–
CC(C)C[C@H]1[C@@H](OCc2ccccc2)COS(=O)N1[C@H](C)c1ccccc1 (stereo not given in full),36.1,> 100,> 100,49.3,> 100,48.3,> 100,67.4,> 100,> 100,> 100,51.3,87.2,> 100,78,95.6,–
CC(NNC(=O)CC(=O)N(C(=O)c1ccccc1)c1ccc(Cl)cc1)c1cc2ccccc2oc1=O (stereo not given),> 10,> 10,> 10,> 10,> 10,> 10,> 10,> 10,> 10,> 10,> 10,> 10,> 10,> 10,> 10,> 10,–
COC(=O)C1(OC(=O)Sc2ccccc2)CCN(C)CC1,50.3,54.9,50.2,58,> 48.4,> 100,> 100,> 66.6,36.3,> 64.7,> 69.6,> 39.8,45.8,> 100,> 69.1,27.8,–
O=C(NS(=O)(=O)OCC(Cl)(Cl)Cl)SCCC(F)(F)C(F)(F)C(F)(F)C(F)(F)C(F)(F)C(F)(F)F,> 100,38.3,40.6,35.6,48.1,37.7,55.7,72.4,55,40.6,34.6,80,61.9,94.6,32.1,92.7,–
C[C@H]1C2Cc3cc(N)ccc3[C@@]1(C)CCN2CCc1ccccc1,> 100,> 100,> 100,> 100,> 100,54,> 100,> 100,> 100,> 100,> 100,> 100,> 100,> 100,> 100,> 100,–
CN(C)/C=N/n1c2ccccc2c2ccccc21,> 100,> 100,> 100,> 100,> 100,> 100,> 100,> 100,> 100,> 100,> 100,> 100,> 100,> 100,> 100,75.8,–
Nc1nc2c(ncn2Cc2ccc(CO)cc2)c(=O)[nH]1,> 100,> 100,> 100,> 100,> 100,> 100,> 100,> 100,> 100,> 100,> 100,> 100,> 100,> 100,> 100,> 100,–
NC12Oc3cc(O)cc(O)c3C1(c1ccc(Cl)cc1)c1c(O)cc(O)cc1O2 (stereo not given),> 100,> 100,> 100,> 100,> 100,> 100,> 100,> 100,> 100,> 100,> 100,> 100,> 100,> 100,> 100,> 100,–
